The source of these data is patent US4172891A, “Cephalosporins” (Takeda Chemical Industries, Inc., priority 1976, dated 1979).

In experiment [1] the test system is E. coli NIHJ. Nature of the experiment: Minimum Inhibitory Concentration, agar dilution, E. coli NIHJ. The format is cell-based. To be noted: Escherichia coli, read-out: Minimum Inhibitory Concentration. The source says:
(§1) […]. | Minimum Inhibitory Concentrations (mcg/ml, agar dilution)

For experiment [2], the system named is E. coli O-111. Description: Minimum Inhibitory Concentration, agar dilution, E. coli O-111. The format is cell-based. Conditions: Escherichia coli, O111; E. coli O-111; agar dilution; read-out: Minimum Inhibitory Concentration. The source says: (§2) Following each example is a tabulation of the minimal inhibitory concentrations (MIC) of the present compound [I] obtained in accordance with the particular example against several representative gram-negative bacteria and the corresponding concentrations of cephaloridine [7-(2-thienylacetamido)-3-(1-pyridyl)methyl-3-cephem-4-carboxylic acid betaine] and cefazolin [sodium 7-(1H-tetrazol-1-yl)acetamido-3-(2-methyl-1,3,4-thiadiazol-5-yl)thiomethyl-3-cephem-4-carboxylate], both of which are typical cephalosporins commercially available and clinically accepted nowadays [The New England Journal of Medicine 294, 24 (1976) and Journal of Pharmaceutical Science 64, 1899 (1975)]. There are also shown the effective doses of the typical compounds of this invention on the mice infected with Escherichia coli in comparison with that of cephaloridine.
Minimum Inhibitory Concentrations (mcg/ml, agar dilution)

Experiment [3] relates to E. coli T-7. Nature of the experiment: Minimum Inhibitory Concentration, agar dilution, E. coli T-7. It counts as cell-based. Conditions: Escherichia coli.
Text: as §1

Experiment [4] relates to K. pneumoniae DT. Nature of the experiment: Minimum Inhibitory Concentration, agar dilution, K. pneumoniae DT. Conditions: Klebsiella pneumoniae, read-out: Minimum Inhibitory Concentration. The format is cell-based.
Text: as §1

In experiment [5] the test system is K. pneumoniae GN 3835. Nature of the experiment: Minimum Inhibitory Concentration, agar dilution, K. pneumoniae GN 3835. The format is cell-based. To be noted: Klebsiella pneumoniae.
Text: as §1

Experiment [6] deals with P. vulgaris IFO 3988. Nature of the experiment: Minimum Inhibitory Concentration, agar dilution, P. vulgaris IFO 3988. It counts as cell-based. Conditions: Proteus vulgaris.
Text: as §1

Experiment [7] concerns P. mirabilis GN 4359. Description: Minimum Inhibitory Concentration, agar dilution, P. mirabilis GN 4359. Conditions: Proteus mirabilis. It counts as cell-based.
Text: as §1

Experiment [8] relates to P. morganii IFO 3168. Nature of the experiment: Minimum Inhibitory Concentration, agar dilution, P. morganii IFO 3168. The format is cell-based, Proteus morganii. Conditions: Morganella morganii.
Text: as §1

Experiment [9] deals with P. rettgeri 8(TNO 336). Description: Minimum Inhibitory Concentration, agar dilution, P. rettgeri 8(TNO 336). It counts as cell-based, Proteus rettgeri. Conditions: Providencia rettgeri.
Text: as §1

The subject of experiment [10] is P. rettgeri GN 4733. Description: Minimum Inhibitory Concentration, agar dilution, P. rettgeri GN 4733. The format is cell-based, Proteus rettgeri. To be noted: Providencia rettgeri.
Text: as §1

Experiment [11] deals with Ent. cloacae IFO 12937. Description: Minimum Inhibitory Concentration, agar dilution, Ent. cloacae IFO 12937. The format is cell-based. To be noted: Enterobacter cloacae.
Experiment [12] relates to Cit. freundii GN 99. Nature of the experiment: Minimum Inhibitory Concentration, agar dilution, Cit. freundii GN 99. The format is cell-based. Conditions: Citrobacter freundii.
Text: as §1

The test system of experiment [13] is Cit. freundii GN 1706. Nature of the experiment: Minimum Inhibitory Concentration, agar dilution, Cit. freundii GN 1706. The format is cell-based. To be noted: Citrobacter freundii.
Text: as §1

Experiment [14] has as its system Escherichia coli O-111. Description: Comparative protection test on infected mice. Conditions: O111, sc, 168 h; male ICR/SLC mice infected intraperitoneally with Escherichia coli O-111; single subcutaneous dose immediately after challenge; 7 days observation. The format is in vivo.
Text: as §2
Comparative protection tests of the compounds of this
invention and cephaloridine on infected mice
*Test animals: male mice (ICR/SLC) 5 mice per group per single dose
Infection: intraperitoneally with Escherichia coli O-111
Administration: a single subcutaneous dose immediately after challenge
Observation period: 7 days

Where [15] appears, read: T7, E. coli T-7, agar dilution, read-out: Minimum Inhibitory Concentration.
Setting [16] is: K. pneumoniae DT, agar dilution.
The mark [17] stands for this setting: GN3835, K. pneumoniae GN 3835, agar dilution, read-out: Minimum Inhibitory Concentration.
Where [18] appears, read: IFO3988, P. vulgaris IFO 3988, agar dilution, read-out: Minimum Inhibitory Concentration.
[19] abbreviates: GN4359, P. mirabilis GN 4359, agar dilution, read-out: Minimum Inhibitory Concentration.
Where [20] appears, read: IFO3168, P. morganii IFO 3168, agar dilution, read-out: Minimum Inhibitory Concentration.
Setting [21] is: P. rettgeri 8(TNO 336), read-out: Minimum Inhibitory Concentration.
The mark [22] stands for this setting: GN4733, P. rettgeri GN 4733, agar dilution, read-out: Minimum Inhibitory Concentration.
The mark [23] stands for this setting: IFO12937, Ent. cloacae IFO 12937, agar dilution, read-out: Minimum Inhibitory Concentration.
[24] abbreviates: GN99, Cit. freundii GN 99, agar dilution, read-out: Minimum Inhibitory Concentration.
Setting [25] is: GN1706, Cit. freundii GN 1706, agar dilution, read-out: Minimum Inhibitory Concentration.

Converted amounts (≈) assume the structure as drawn. Where two headings read alike, the source gives them in different places.

For `Cc1nnc(SCC2=C(C(=O)O)N3C(=O)C(NC(=O)Cc4csc(=N)n4O)C3SC2)s1` (stereo not shown) [Example 4, sodium 7-[2-(2-imino-3-hydroxy-4-thiazolin-4-yl)acetamido]-3-(2-methyl-1,3,4-thiadiazol-5-yl)thiomethyl-3-cephem-4-carboxylate], the MIC came out at 0.05 µg/mL in experiment [1] (E. coli NIHJ, agar dilution); 0.024 µg/mL in experiment [2]; 1.56 µg/mL in experiment [3] (setting [15]); 0.05 µg/mL in experiment [4] (setting [16]); 0.2 µg/mL in [5] (setting [17]); 0.1 µg/mL in experiment [6] (setting [18]). Moreover, the MIC in [7] (setting [19]) amounted to 0.05 µg/mL; in [8] (setting [20]), 0.1 µg/mL; in experiment [9] (setting [21]), 0.012 µg/mL; in [10] (setting [22]), 0.1 µg/mL; in [11] (setting [23]), 50 µg/mL; in experiment [12] (setting [24]), 0.78 µg/mL. For the same compound, the MIC in experiment [13] (setting [25]) amounted to 1.56 µg/mL. In experiment [14], the 50% effect level (ED50) was put at a dose of 0.019 mg/kg.

As for `Cc1nnc(SCC2=C(C(=O)O)N3C(=O)C(NC(=O)Cc4csc(=N)n4O)C3SC2)o1` (stereo not shown) [Example 6, sodium 7-[2-(2-imino-3-hydroxy-4-thiazolin-4-yl)acetamido]-3-(5-methyl-1,3,4-oxadiazol-2-yl) thiomethyl-3-cephem-4-carboxylate], the MIC in experiment [1] (E. coli NIHJ, agar dilution) came out at 0.1 µg/mL; in [2], 0.05 µg/mL; in experiment [3] (setting [15]), 3.13 µg/mL; in experiment [4] (setting [16]) it was 0.1 µg/mL; in [5] (setting [17]), 0.78 µg/mL; in [6] (setting [18]), 0.2 µg/mL. In addition, the MIC in experiment [7] (setting [19]) is 0.1 µg/mL; in experiment [8] (setting [20]), 0.1 µg/mL; in experiment [9] (setting [21]), ≤ 0.012 µg/mL; in [10] (setting [22]), 0.1 µg/mL; in experiment [11] (setting [23]) it was 50 µg/mL; in experiment [12] (setting [24]) it was 0.78 µg/mL. In addition, the MIC in [13] (setting [25]) was 1.56 µg/mL. Besides, it took a dose of 0.071 mg/kg to reach the 50% effect level in [14] (ED50).

Regarding `N=c1scc(CC(=O)NC2C(=O)N3C(C(=O)O)=C(CSc4c[nH]nn4)CSC23)n1O` (stereo not shown) [Example 7, sodium 7-[2-(2-imino-3-hydroxy-4-thiazolin-4-yl)acetamido]-3-(1H-1,2,3-triazol-4-yl)thiomethyl-3-cephem-4-carboxylate], the MIC turned out to be 0.78 µg/mL in experiment [1] (E. coli NIHJ, agar dilution); 0.05 µg/mL in [2]; 3.13 µg/mL in [3] (setting [15]); 0.1 µg/mL in experiment [4] (setting [16]); 0.1 µg/mL in experiment [5] (setting [17]); 0.2 µg/mL in experiment [6] (setting [18]). Also, the MIC in experiment [7] (setting [19]) was 0.1 µg/mL; in experiment [8] (setting [20]) it was 0.39 µg/mL; in [9] (setting [21]), ≤ 0.03 µg/mL; in [10] (setting [22]) it was 0.78 µg/mL; in experiment [11] (setting [23]), > 100 µg/mL; in experiment [12] (setting [24]), 1.56 µg/mL. Besides, the MIC in experiment [13] (setting [25]) came to 12.5 µg/mL. Further, in experiment [14], the 50% effect level (ED50) was put at a dose of 0.056 mg/kg.

For `N=c1scc(CC(=O)NC2C(=O)N3C(C(=O)[O-])=C(C[n+]4ccc(C(N)=O)cc4)CSC23)n1O` (stereo not shown) [Example 10, 7-[2-(2-imino-3-hydroxy-4-thiazolin-4-yl)acetamido]-3-(4-carbamoylpyridinium)methyl-3-cephem-4-carboxylic acid betain], the MIC was found to be 1.56 µg/mL (≈ 3.18 µM) in [1] (E. coli NIHJ, agar dilution); 0.39 µg/mL (≈ 0.795 µM) in experiment [2]; 25 µg/mL (≈ 51 µM) in experiment [3] (setting [15]); 0.78 µg/mL (≈ 1.59 µM) in experiment [4] (setting [16]); 1.56 µg/mL (≈ 3.18 µM) in [5] (setting [17]); 0.78 µg/mL (≈ 1.59 µM) in experiment [6] (setting [18]). The MIC was 0.78 µg/mL (≈ 1.59 µM) in experiment [7] (setting [19]); 3.13 µg/mL (≈ 6.38 µM) in experiment [8] (setting [20]); ≤ 0.2 µg/mL in experiment [9] (setting [21]); ≤ 0.2 µg/mL in experiment [10] (setting [22]); 25 µg/mL (≈ 51 µM) in experiment [11] (setting [23]); 1.56 µg/mL (≈ 3.18 µM) in experiment [12] (setting [24]). Moreover, the MIC in experiment [13] (setting [25]) amounted to 12.5 µg/mL (≈ 25.5 µM). Also, the 50% effect level in [14] (ED50) was put at a dose of 0.089 mg/kg.

`N=c1scc(CC(=O)NC2C(=O)N3C(C(=O)[O-])=C(COC(N)=O)CS[C@H]23)n1O.[Na+]` (stereo partly shown) [Example 13, sodium 7-[2-(2-imino-3-hydroxy-4-thiazolin-4-yl)acetamido]-3-(carbamoyloxymethyl)-3-cephem-4-carboxylate]: the MIC in [1] was 0.2 µg/mL; in experiment [2], 0.1 µg/mL; in [3] (T7, read-out: Minimum Inhibitory Concentration), 1.56 µg/mL; in experiment [4], 0.2 µg/mL; in experiment [5] (GN3835, read-out: Minimum Inhibitory Concentration) it was 0.2 µg/mL; in [6] (IFO3988, read-out: Minimum Inhibitory Concentration), 0.39 µg/mL. The MIC in [7] (GN4359, read-out: Minimum Inhibitory Concentration) was 0.2 µg/mL; in experiment [8] (IFO3168, read-out: Minimum Inhibitory Concentration), 0.78 µg/mL; in experiment [9] (read-out: Minimum Inhibitory Concentration, P. rettgeri 8(TNO 336)), ≤ 0.012 µg/mL; in experiment [10] (GN4733, read-out: Minimum Inhibitory Concentration), 0.2 µg/mL; in experiment [11] (IFO12937, read-out: Minimum Inhibitory Concentration) it was 50 µg/mL; in [12] (GN99, read-out: Minimum Inhibitory Concentration), 0.78 µg/mL. Also, in [13] (GN1706, read-out: Minimum Inhibitory Concentration), the MIC worked out at 3.13 µg/mL. It took a dose of 0.084 mg/kg to reach the 50% effect level in experiment [14] (ED50).
